Assay results as given in paper PMC2957295 (Biochemistry, 2010).

Target: T1, Fas (Homo sapiens, UniProt P25445)
T1 sequence (P25445 26-335): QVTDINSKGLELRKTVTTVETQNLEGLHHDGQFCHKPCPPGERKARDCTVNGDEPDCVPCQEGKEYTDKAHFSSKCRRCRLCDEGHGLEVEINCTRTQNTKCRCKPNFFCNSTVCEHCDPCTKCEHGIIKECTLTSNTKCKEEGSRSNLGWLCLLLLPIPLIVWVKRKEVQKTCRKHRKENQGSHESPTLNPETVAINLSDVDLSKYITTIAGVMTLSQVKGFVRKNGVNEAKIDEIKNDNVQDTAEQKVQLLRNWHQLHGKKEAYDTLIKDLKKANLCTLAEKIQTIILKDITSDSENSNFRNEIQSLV
Experiment: anti-Fas immunoprecipitation of treated cells, Western blot for 4-HNE adduct
Type: cell-based
Details: covalent; HepG2 cells, 20 µM 4-HNE, 2 h

CCCCCC(O)/C=C/C=O (stereo not shown) [4-hydroxy-2-nonenal]
4-HNE-Fas adduct: shows the presence of Daxx and 4-HNE-Fas adduct
